Laboratory results reported in patent US20090054404A1, “USE OF R-10-HYDROXY-10,11-DIHYDRO-CARBAMAZEPINE IN NEUROPATHIC PAIN” (priority 2003, published 2009).

What was measured:
neuropathic guinea-pigs [1] = experiment: Reversal of mechanical hyperalgesia in a model of neuropathic pain (partial sciatic nerve ligation, paw withdrawal threshold); format: in vivo, guinea pig
Excerpt: Neuropathic hyperalgesia is induced by partial ligation of the left sciatic nerve (Seltzer et al, Pain 43, 1990, 205-218; Campbell et al, Neuroscience 87, 1998, 527-532). Briefly, male Dunkin Hartley guinea pigs (200-250 g) are anaesthetized with isoflurane in N2O:O2, the left sciatic nerve exposed at mid thigh level through a small incision and ⅓ to ½ of the nerve thickness tightly ligated within a 7.0 silk suture. The wound is closed and the animals are allowed to recover from surgery for 12 to 15 days.
Mechanical hyperalgesia is assessed by measuring paw withdrawal thresholds to an increasing pressure stimulus placed onto the dorsal surface of the paw using an analgesymeter (Ugo-Basile, Milan) with a cut-off of 250 g. Withdrawal are measured on both the ipsilateral (ligated) and contralateral (unligated) paw prior to and then up to 6 h following drug or vehicle administration. Reversal of hyperalgesia at each time point is calculated according to the following formula, which uses the contralateral paw as a reference: […]
(§1) The enantiomers of the compound of formula I are administered daily in 0.5% methyl-cellulose/water, with Trileptal™ included in each experiment as positive control. Each experiment uses 6 randomly assigned animals per treatment group. Statistical analysis is carried out on withdrawal threshold data comparing test to vehicle.

neuropathic guinea-pigs [2] = experiment: Side-effects observed after administration in the neuropathic pain model; format: in vivo, guinea pig
Protocol: as §1
The R-enantiomer of the compound of formula I produces a dose-related reversal of mechanical hyperalgesia in neuropathic guinea-pigs. A maximum reversal of 73% is observed 1 h following administration with a calculated D50 value of 47 mg/kg.

[3] = 1 h following administration, neuropathic guinea-pigs
[4] = highest dose tested (100 mg/kg)

Structure (SMILES) | calculated D50 value (reversal of mechanical hyperalgesia) (neuropathic guinea-pigs [1]; [3]) [mg/kg] | maximum reversal of mechanical hyperalgesia (neuropathic guinea-pigs [1]; [3]) [%] | duration of anti-hyperalgesic effect (neuropathic guinea-pigs [1]; 6 h following administration) | side-effects (neuropathic guinea-pigs [2]; highest dose) | anti-hyperalgesic activity (neuropathic guinea-pigs [1]; [4]) | apparent maximal reversal of hyperalgesia (neuropathic guinea-pigs [1]; [4]) [%] | anti-hyperalgesic activity (neuropathic guinea-pigs [1]; lower doses (below 100 mg/kg)) | side-effects (neuropathic guinea-pigs [2]; at doses that reverse mechanical hyperalgesia)
NC(=O)N1c2ccccc2C[C@@H](O)c2ccccc21 (single isomer, unassigned) [R-enantiomer, R(−)-10,11-dihydro-10-hydroxy-5H-dibenzo[b,f]azepine-5-carboxamide] | 47 | 73 | significant activity | comparatively mild side-effect |  |  |  | 
NC(=O)N1c2ccccc2C[C@H](O)c2ccccc21 (single isomer, unassigned) [S-enantiomer, S(+)-10,11-dihydro-10-hydroxy-5H-dibenzo[b,f]azepine-5-carboxamide] |  |  |  |  | observed | 55 | no significant effect | marked side-effects, principally ataxia and catalepsy
